From paper PMC9220178, “Preclinical Characterization of Antioxidant Quinolyl Nitrone QN23 as a New Candidate for the Treatment of Ischemic Stroke” (Antioxidants, 2022)

Legend:
[1] = tested on: adult male Wistar rats, four-vessel occlusion (4VO) transient forebrain ischemia; test: Neuronal apoptosis by TUNEL assay after transient global cerebral ischemia (4VO); format: in vivo, rat; settings: for Neuroprotection (neuronal apoptosis, TUNEL): vehicle = 0%
Method: Transient forebrain ischemia was induced in adult male Wistar rats (10–12 weeks, Charles River, L’Arbresle, France) by the standard four-vessel occlusion (4VO) model previously described. Briefly, animals were anesthetized by intraperitoneal injection of a combination of ketamine, diazepam, and atropine (62.5, 5.0, and 0.25 mg/kg, respectively); positioned in a stereotactic device; and both vertebral arteries were cauterized. The next day, anesthesia was induced with 4% isoflurane and maintained at 2–2.5% isoflurane for carotid artery dissection. After anesthesia withdrawal, the carotid arteries were occluded with an atraumatic vascular clamp to induce brain ischemia. During the entire surgical procedure, temperature was monitored at 2 min intervals and kept at 37 °C. After 15 min of ischemia, the carotid arteries were unclamped for brain reperfusion. The animals were studied after 5 days of reperfusion (R5d), or after 11 weeks of reperfusion (long-term studies), and then they were euthanized under deep anesthesia. Animals from the sham control group were handled in the same way, but without occlusion of the carotid arteries. Ischemic animals were treated with vehicle solution (ethanol/polyethylene glycol 400/saline, 1:300:200 v/v), or with nitrones QN23 or NXY-059 in vehicle solution, as a single injection through the tail vein at the onset of reperfusion. For the therapeutic window experiments, the animals were also treated at reperfusion times 1, 3, and 6 h after ischemia. The treatments were prepared by an independent researcher and administered with concealed allocation. Treatments were administered in a randomized order obtained by a computer-based randomization program. To determine the sample size, a power analysis (http://www.biomath.info/power/ttest.htm, accessed on 12 March 2020) with significance level set at 0.05 and statistical power set at 0.8 (80%) rendered a sample size of <6 subjects per group. A total of 120 ischemic animals (30 animals treated with vehicle, 60 treated with QN23, and 30 treated with NXY-059) and 9 sham control animals were included in these studies. Additionally, 13 animals were excluded from the study: 6 animals were not ischemic and 7 animals died within the 24 h after the surgical procedure (5 vehicles, 1 QN23-treated at 1.0 mg/kg, and 1 QN23-treated at 2.0 mg/kg). The Animal Care Ethics Committee of the Hospital Universitario Ramón y Cajal (Madrid, Spain) authorized all the procedures involving the animal experimentation reported here (authorization number 04/2020). These experiments were performed according to ARRIVE guidelines and the legislation on the protection of animals used for scientific purposes in Spain (RD 53/2013) and the EU (Directive 2010/63/EU). The study was designed and conducted according to the STAIR guidelines regarding physiological monitoring, sample randomization, predefined exclusion criteria, allocation concealment, blinded assessment of outcomes, dose–response definition, and a conflict-of-interest statement.
After 5 days of reperfusion (R5d), or at 11 weeks of reperfusion in long-term studies, animals were euthanized by transcardiac perfusion via the left ventricle under deep anesthesia. First, blood was washed out with 200 mL of ice-cold saline medium, followed by fixation with 4% (w/v) paraformaldehyde solution in PBS for brain preservation. Then, the brains were carefully removed from the cranial cavity and placed in 4% (w/v) paraformaldehyde solution in PBS overnight at 4 °C. The next day, the brains were sequentially placed in 10%, 20%, and 30% (w/v) sucrose in PBS until sunken, and finally embedded in Tissue-Tek O.C.T. (Sakura Finetek, Torrance, CA, USA) before freezing at −80 °C. Brain coronal sections containing the hippocampus region were obtained by cryostat sectioning at the level of interaural line +5.7 ± 0.2 mm on Real Capillary Gap microscope slides (Agilent Dako, Santa Clara, CA, USA). […]

[2] = tested on: Wistar male rats subjected to global cerebral ischemia; test: Imaging of cerebral ROS with dihydroethidium (DHE) in brain ischemia; format: in vivo, rat; settings: 2.0 mg/kg i.v. at reperfusion onset; CA1 and cortical regions; 6 h of reperfusion
Method: In order to evaluate the antioxidant capacity of QN23 in vivo, the fluorescent probe dihydroethidium (DHE) was used for superoxide and hydrogen peroxide detection according to the experimental procedure described in [29], with minor modifications. Animals subjected to global cerebral ischemia (Wistar male rats of 280–300 g) were treated with vehicle or QN23 at the onset of the reperfusion period, and after 2 h of reperfusion DHE (3.0 mg/kg; 0.9 mg/mL in DMSO/polyethylene glycol 400/saline, 2.5:50:47.5 v/v) was intravenously injected (1 mL). DHE (Sigma-Aldrich, Merck KGaA, Darmstadt, Germany) was freshly weighted and dissolved just before the injection to avoid undesired air-driven oxidation. At 6 h of reperfusion after ischemia (4 h after DHE injection), the animals were euthanized and perfused with saline and 4% (w/v) paraformaldehyde in PBS. […]
Hippocampal CA1 subfields and cortical fields from a given brain section were randomly selected and analyzed with fluorescence microscopy (20× objective), and the selected images (425 × 340 μm) were digitized with a color CCD camera (1280 × 1024 pixel resolution). Fluorescence intensity (in red) of ROS-reacted DHE was evaluated and normalized to the number of DAPI-stained nuclei by using an image analysis software (Image-J 1.53). At least four images per brain sample, and 3 to 6 brains per experimental group, were evaluated and averaged. […]

[3] = tested on: adult male Wistar rats, four-vessel occlusion (4VO) transient forebrain ischemia; test: Long-term neuronal viability by S6 protein immunostaining, hippocampal CA1; format: in vivo, rat; settings: 2.0 mg/kg i.v. at reperfusion onset; 11 weeks of reperfusion
Method: Transient forebrain ischemia was induced in adult male Wistar rats (10–12 weeks, Charles River, L’Arbresle, France) by the standard four-vessel occlusion (4VO) model previously described. Briefly, animals were anesthetized by intraperitoneal injection of a combination of ketamine, diazepam, and atropine (62.5, 5.0, and 0.25 mg/kg, respectively); positioned in a stereotactic device; and both vertebral arteries were cauterized. The next day, anesthesia was induced with 4% isoflurane and maintained at 2–2.5% isoflurane for carotid artery dissection. After anesthesia withdrawal, the carotid arteries were occluded with an atraumatic vascular clamp to induce brain ischemia. During the entire surgical procedure, temperature was monitored at 2 min intervals and kept at 37 °C. After 15 min of ischemia, the carotid arteries were unclamped for brain reperfusion. The animals were studied after 5 days of reperfusion (R5d), or after 11 weeks of reperfusion (long-term studies), and then they were euthanized under deep anesthesia. Animals from the sham control group were handled in the same way, but without occlusion of the carotid arteries. Ischemic animals were treated with vehicle solution (ethanol/polyethylene glycol 400/saline, 1:300:200 v/v), or with nitrones QN23 or NXY-059 in vehicle solution, as a single injection through the tail vein at the onset of reperfusion. […]

[4] = tested on: primary neuronal cultures subjected to OGD; parameters: method as in PMID 30715875; settings: cited from earlier work
[5] = applied at onset of recovery period after OGD

COc1ccc2nc(Cl)c(/C=[N+](\[O-])C(C)(C)C)cc2c1 [QN23, (Z)-N-tert-Butyl-1-(2-chloro-6-methoxyquinolin-3-yl)methanimine Oxide]
Therapeutic window: injection time after reperfusion onset with significantly reduced apoptosis-positive cells ([1]; 2.0 mg/kg i.v., CA1 and cortical regions, R5d, times tested 0, 1, 3, 6 h): up to 3 h | Neuroprotection (neuronal apoptosis, TUNEL) ([1]; CA1, 1.5 mg/kg i.v. at reperfusion onset, R5d): 16.2% | Neuroprotection (neuronal apoptosis, TUNEL) ([1]; CA1, 2.0 mg/kg i.v. at reperfusion onset, R5d): 27.8% | Number of apoptotic cells compared with vehicle ([1]; CA1 and cortical regions, 2.0 and 2.5 mg/kg i.v. at reperfusion onset, R5d): significant decrease | Neuroprotection (neuronal apoptosis, TUNEL) ([1]; cortical region, 1.5 mg/kg i.v. at reperfusion onset, R5d): 85.0% | Neuroprotection (neuronal apoptosis, TUNEL) ([1]; cortical region, 2.0 mg/kg i.v. at reperfusion onset, R5d): 88.0% | EC50 of neuroprotection, TUNEL assay ([1]; either CA1 or cortical region, i.v., from dose-response curve): 0.3 mg/kg | Fluorescence intensity of ROS-reacted DHE compared with vehicle [2]: decreased significantly | S6-positive cells (viable neurons) in hippocampal CA1 [3]: preserved a large number of viable neurons | Most effective concentration for neuroprotection [4, 5]: 100 µM | Optimal range of concentration for neuroprotection [4, 5]: 0.3 to 250 µM | ROS and lipid peroxidation levels ([4]; primary neuronal cultures subjected to OGD): decreased
